Laboratory results published in patent US11542259B2, “Compounds for the treatment of kinase-dependent disorders” (Exelixis, Inc., priority 2018, dated 2023).

How the values were obtained:
Type in all cases: cell-based
Met = Met (Homo sapiens (Human), UniProt P08581); test: Met autophosphorylation ELISA in PC-3 cells; conditions: cellular, HGF stimulated, read-out: c-Met IC50
Experimental: PC-3 prostate cancer cells (ATCC #CRL-1435) were seeded at 4×10^4 cells/well onto 24-well plates (Greiner #662165), in DMEM (Thermo Fisher #11995-040) containing 10% FBS (Thermo Fisher #26140-079), 1% MEM NEAA (Thermo Fisher #11140-050), 1% GlutaMax (Thermo Fisher #35050-061), and 1% Penicillin Streptomycin (Thermo Fisher #15140-122). PC-3 cells were incubated at 37° C., 5% CO2 for 24 h and then starved for 3 h in serum-free medium. Test compounds were serially diluted to produce an 8-point dose curve in fresh serum-free medium to a final concentration of 0.3% DMSO (vehicle) and added to the cells and incubated for 1 h. Cells were then stimulated with 100 ng/mL recombinant human HGF (R&D Systems #294-HG-250) for 10 min, washed with cold PBS and immediately lysed with 130 μL of cold 1× lysis buffer [20 mM Tris, 137 mM sodium chloride, 2 mM EDTA, 10% glycerol, 1% NP-40 alternative, 1 mM activated sodium orthovanadate, 1 mM PefaBloc SC (Sigma-Aldrich #11429868001), protease/phosphatase inhibitor tablet (Thermo Fisher #A32959)]. Lysates were clarified by centrifugation and 100 μL/well added into the PathScan phospho-Met (panTyr) Sandwich ELISA (Cell Signaling Technology #7333). Assay was performed according to manufacturer's instructions. Positive control wells (100% activity) contained HGF-stimulated, DMSO-treated cell lysates. Negative control wells (0% activity) contained HGF-stimulated, reference inhibitor-treated cell lysates. IC50 values were calculated by nonlinear regression analysis using a 4-parameter logistic curve fit in ActivityBase XE (IDBS).

KDR = KDR (Homo sapiens (Human), UniProt P35968); test: KDR autophosphorylation ELISA in HUVEC cells; conditions: cellular, VEGF165 stimulated
Experimental: Human umbilical vein endothelial cells or HUVEC (Lonza #C2519A) were seeded at 2×10^4 cells/well onto 96-well plates (Corning #3904), in EGM-2 growth medium (Lonza #CC-3162) containing 1% Penicillin Streptomycin (Thermo Fisher #15140-122). HUVEC cells were incubated at 37° C., 5% CO2 for 24 h and then starved for 24 h in serum-free EBM-2 basal medium (Lonza #CC-3156) containing 1% Penicillin Streptomycin. Test compounds were serially diluted to produce an 8-point dose curve in fresh serum-free medium to a final concentration of 0.3% DMSO (vehicle) and added to the cells and incubated for 1 h. Cells were then stimulated with 100 ng/mL recombinant human VEGF165 (R&D Systems #293-VE-500) for 5 min, washed with cold PBS, and immediately lysed with 130 μL of cold 1× lysis buffer [20 mM Tris, 137 mM sodium chloride, 2 mM EDTA, 10% glycerol, 1% NP-40 alternative, 1 mM activated sodium orthovanadate, 1 mM PefaBloc SC (Sigma-Aldrich #11429868001), protease/phosphatase inhibitor tablet (Thermo Fisher #A32959)]. Lysates were collected and 100 μL/well added into the human phospho-KDR DuoSet IC ELISA (R&D Systems #DYC1766-2). Assay was performed according to manufacturer's instructions and sample phospho-KDR concentrations were extrapolated using human phospho-KDR control (R&D Systems #841421) as a standard. Positive control wells (100% activity) contained VEGF165-stimulated, DMSO-treated cell lysates. Negative control wells (0% activity) contained non-stimulated cell lysates. IC50 values were calculated by nonlinear regression analysis using a 4-parameter logistic curve fit in ActivityBase XE (IDBS).

AXL = AXL (Homo sapiens (Human), UniProt P30530); test: AXL autophosphorylation ELISA in A-172 cells; conditions: cellular, Gas6 stimulated
Experimental: A-172 glioblastoma cells (ATCC #CRL-1620) were seeded at 2.5×10^5 cells/well onto 24-well plates (Greiner #662165), in DMEM (Thermo Fisher #11995-040) containing 10% FBS (Thermo Fisher #26140-079), 1% MEM NEAA (Thermo Fisher #11140-050), 1% GlutaMax (Thermo Fisher #35050-061) and 1% Penicillin Streptomycin (Thermo Fisher #15140-122). A-172 cells were incubated at 37° C., 5% CO2 for 24 h and then starved for 24 h in serum-free medium. Test compounds were serially diluted to produce an 8-point dose curve in fresh serum-free medium to a final concentration of 0.3% DMSO (vehicle) and added to the cells and incubated for 1 h. Cells were then stimulated with 1 μg/mL recombinant human Gas6 (R&D Systems #885-GSB-500) for 15 min, washed with cold PBS and immediately lysed with 150 μL of cold 1× lysis buffer [20 mM Tris, 137 mM sodium chloride, 2 mM EDTA, 10% glycerol, 1% NP-40 alternative, 1 mM activated sodium orthovanadate, 1 mM PefaBloc SC (Sigma-Aldrich #11429868001), protease/phosphatase inhibitor tablet (Thermo Fisher #A32959)]. Lysates were collected and 100 μL/well added into the human phospho-AXL DuoSet IC ELISA (R&D Systems #DYC2228-2). Assay was performed according to manufacturer's instructions and sample phospho-AXL concentrations were extrapolated using human phospho-AXL control (R&D Systems #841645) as a standard. Positive control wells (100% activity) contained Gash-stimulated, DMSO-treated cell lysates. Negative control wells (0% activity) contained Gash-stimulated, reference inhibitor-treated cell lysates. IC50 values were calculated by nonlinear regression analysis using a 4-parameter logistic curve fit in ActivityBase XE (IDBS).

Chain of KDR (P35968 20-1356): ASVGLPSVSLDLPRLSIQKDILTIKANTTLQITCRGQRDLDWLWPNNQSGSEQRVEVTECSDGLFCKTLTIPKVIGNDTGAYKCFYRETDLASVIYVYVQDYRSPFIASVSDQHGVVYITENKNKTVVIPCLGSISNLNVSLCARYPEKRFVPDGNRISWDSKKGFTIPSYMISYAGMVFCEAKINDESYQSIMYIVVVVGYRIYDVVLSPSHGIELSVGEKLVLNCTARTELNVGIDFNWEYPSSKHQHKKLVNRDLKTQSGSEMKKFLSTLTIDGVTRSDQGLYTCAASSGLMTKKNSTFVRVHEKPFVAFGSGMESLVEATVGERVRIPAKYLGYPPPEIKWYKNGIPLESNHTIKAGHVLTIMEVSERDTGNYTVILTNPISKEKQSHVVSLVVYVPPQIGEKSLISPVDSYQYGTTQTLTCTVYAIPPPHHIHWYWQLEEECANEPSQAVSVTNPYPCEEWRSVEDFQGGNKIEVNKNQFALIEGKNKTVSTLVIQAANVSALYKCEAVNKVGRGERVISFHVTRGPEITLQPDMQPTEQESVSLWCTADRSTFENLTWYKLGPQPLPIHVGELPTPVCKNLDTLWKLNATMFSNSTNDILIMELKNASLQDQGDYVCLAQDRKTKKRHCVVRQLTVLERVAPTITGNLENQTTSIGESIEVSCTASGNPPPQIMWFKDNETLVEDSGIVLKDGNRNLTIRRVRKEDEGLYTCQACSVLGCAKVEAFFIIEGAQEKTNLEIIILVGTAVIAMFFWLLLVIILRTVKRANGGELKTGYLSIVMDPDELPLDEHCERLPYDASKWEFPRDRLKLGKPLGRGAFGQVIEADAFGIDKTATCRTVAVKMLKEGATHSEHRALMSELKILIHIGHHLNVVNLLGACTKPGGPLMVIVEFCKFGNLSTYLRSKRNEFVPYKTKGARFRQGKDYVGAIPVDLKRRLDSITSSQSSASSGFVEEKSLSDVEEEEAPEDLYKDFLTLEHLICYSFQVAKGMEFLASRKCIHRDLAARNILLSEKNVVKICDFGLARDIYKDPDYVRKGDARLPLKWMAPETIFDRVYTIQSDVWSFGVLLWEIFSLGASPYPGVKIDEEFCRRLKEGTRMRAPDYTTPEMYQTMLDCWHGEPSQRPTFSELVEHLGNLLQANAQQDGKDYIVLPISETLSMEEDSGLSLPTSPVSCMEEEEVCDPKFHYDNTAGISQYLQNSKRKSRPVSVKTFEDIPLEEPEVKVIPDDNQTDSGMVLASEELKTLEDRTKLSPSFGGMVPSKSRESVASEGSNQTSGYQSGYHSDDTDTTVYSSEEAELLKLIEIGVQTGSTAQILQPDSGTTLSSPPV
Chain of AXL (P30530 26-894): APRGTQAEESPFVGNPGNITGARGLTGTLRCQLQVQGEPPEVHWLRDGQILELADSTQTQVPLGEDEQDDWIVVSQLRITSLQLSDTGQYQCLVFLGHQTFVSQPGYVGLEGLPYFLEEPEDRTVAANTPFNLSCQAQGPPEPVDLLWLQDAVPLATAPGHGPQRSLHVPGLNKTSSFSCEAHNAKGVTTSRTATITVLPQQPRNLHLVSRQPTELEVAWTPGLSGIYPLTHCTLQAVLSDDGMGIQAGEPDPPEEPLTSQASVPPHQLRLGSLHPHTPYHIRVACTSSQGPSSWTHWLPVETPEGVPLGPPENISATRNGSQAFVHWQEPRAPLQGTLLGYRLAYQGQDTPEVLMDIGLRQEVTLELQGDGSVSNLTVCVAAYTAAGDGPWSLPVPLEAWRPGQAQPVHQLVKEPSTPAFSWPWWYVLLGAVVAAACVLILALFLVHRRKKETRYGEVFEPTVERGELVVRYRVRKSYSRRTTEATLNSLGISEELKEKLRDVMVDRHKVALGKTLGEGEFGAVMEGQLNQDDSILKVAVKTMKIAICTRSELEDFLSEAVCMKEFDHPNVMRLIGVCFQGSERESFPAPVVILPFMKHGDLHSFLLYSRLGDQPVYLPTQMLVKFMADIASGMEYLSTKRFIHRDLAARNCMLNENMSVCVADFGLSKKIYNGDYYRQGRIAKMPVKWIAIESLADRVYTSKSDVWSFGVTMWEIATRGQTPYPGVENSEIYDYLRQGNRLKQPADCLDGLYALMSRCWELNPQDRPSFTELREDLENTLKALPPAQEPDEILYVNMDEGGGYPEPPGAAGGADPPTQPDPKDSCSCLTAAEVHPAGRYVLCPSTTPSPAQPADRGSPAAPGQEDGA
Chain of Met (P08581 25-1390): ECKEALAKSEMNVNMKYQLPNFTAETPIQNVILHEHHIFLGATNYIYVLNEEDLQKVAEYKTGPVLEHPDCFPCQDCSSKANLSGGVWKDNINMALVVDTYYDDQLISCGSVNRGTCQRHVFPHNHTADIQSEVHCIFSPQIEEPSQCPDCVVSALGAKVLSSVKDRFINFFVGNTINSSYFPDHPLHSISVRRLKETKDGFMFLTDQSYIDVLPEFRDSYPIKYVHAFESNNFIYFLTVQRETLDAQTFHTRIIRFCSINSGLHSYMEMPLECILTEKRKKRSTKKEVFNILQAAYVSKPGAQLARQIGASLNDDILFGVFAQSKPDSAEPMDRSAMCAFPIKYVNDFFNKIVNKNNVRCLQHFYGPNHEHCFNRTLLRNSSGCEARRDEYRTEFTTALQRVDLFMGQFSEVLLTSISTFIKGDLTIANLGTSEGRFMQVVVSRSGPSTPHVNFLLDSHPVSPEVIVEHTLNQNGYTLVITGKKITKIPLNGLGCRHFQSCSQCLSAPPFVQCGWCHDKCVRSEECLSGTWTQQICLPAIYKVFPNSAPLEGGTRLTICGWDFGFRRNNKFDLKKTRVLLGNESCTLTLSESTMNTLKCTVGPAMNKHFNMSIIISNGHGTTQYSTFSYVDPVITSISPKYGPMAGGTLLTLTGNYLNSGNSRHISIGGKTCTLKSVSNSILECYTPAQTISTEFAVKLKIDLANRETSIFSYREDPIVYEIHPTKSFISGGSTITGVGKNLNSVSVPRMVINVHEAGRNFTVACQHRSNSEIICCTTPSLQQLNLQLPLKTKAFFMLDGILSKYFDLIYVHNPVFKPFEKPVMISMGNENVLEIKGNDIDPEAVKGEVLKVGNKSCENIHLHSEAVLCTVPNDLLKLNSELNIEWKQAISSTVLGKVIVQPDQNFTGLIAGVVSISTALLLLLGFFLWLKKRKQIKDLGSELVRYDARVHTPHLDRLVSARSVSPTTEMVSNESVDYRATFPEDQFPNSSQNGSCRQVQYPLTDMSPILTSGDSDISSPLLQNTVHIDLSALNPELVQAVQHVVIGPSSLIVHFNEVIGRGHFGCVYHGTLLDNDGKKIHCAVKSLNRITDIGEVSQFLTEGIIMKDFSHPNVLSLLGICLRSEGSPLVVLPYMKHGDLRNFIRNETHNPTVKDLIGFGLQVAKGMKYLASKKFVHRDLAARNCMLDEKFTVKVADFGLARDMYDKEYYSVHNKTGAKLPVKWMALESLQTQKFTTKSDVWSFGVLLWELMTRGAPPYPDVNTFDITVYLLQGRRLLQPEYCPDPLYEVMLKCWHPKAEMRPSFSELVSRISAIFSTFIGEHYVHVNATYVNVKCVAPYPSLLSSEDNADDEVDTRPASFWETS

IC50 (Met) [nM]	IC50 (KDR) [nM]	IC50 (AXL) [nM]	Structure (SMILES)
100 to 300	10 to 100	100 to 300	CNC(=O)c1cc2c(Oc3ccc(NC(=O)C4(C(=O)Nc5ccc(C(F)(F)F)cc5)CC4)cc3F)ccnc2cc1OC [Compound 273, 1-N′-[3-Fluoro-4-[7-methoxy-6-(methylcarbamoyl)quinolin-4-yl]oxyphenyl]-1-N-[4-(trifluoromethyl)phenyl]cyclopropane-1,1-dicarboxamide]
10 to 100	10 to 100	10 to 100	COCCNc1cc2nccc(Oc3ccc(NC(=O)C4(C(=O)Nc5ccc(F)cc5)CC4)cc3)c2cc1C(N)=O [Compound 70, 1-N-[4-[6-Carbamoyl-7-(2-methoxyethylamino)quinolin-4-yl]oxyphenyl]-1-N′-(4-fluorophenyl)cyclopropane-1,1-dicarboxamide]
> 300	100 to 300	100 to 300	O=C(NOC[C@@H](O)CO)c1ccc2c(Oc3ccc(NC(=O)C4(C(=O)Nc5ccc(F)cc5)CC4)cc3)ccnc2c1 [Compound 170, 1-N-[4-[7-[[(2S)-2,3-Dihydroxypropoxy]carbamoyl]quinolin-4-yl]oxyphenyl]-1-N′-(4-fluorophenyl)cyclopropane-1,1-dicarboxamide]
> 300	> 300	> 300	CNc1cc2nccc(Oc3ccc(NC(=O)C4(C(=O)Nc5ccc(F)cc5)CC4)cc3)c2cc1C(=O)O [Compound 81, 4-[4-[[1-[(4-Fluorophenyl)carbamoyl]cyclopropane-carbonyl]amino]phenoxy]-7-(methylamino)quinoline-6-carboxylic Acid]
10 to 100	10 to 100	10 to 100	CNC(=O)c1cc2c(Oc3ccc(NC(=O)C4(C(=O)Nc5ccc(F)cc5)CC4)cc3)ccnc2cc1NC [Compound 83, 1-N′-(4-Fluorophenyl)-1-N-[4-[7-(methylamino)-6-(methylcarbamoyl)quinolin-4-yl]oxyphenyl]cyclopropane-1,1-dicarboxamide]
10 to 100	10 to 100	10 to 100	COC(=O)c1cc2c(Oc3ccc(NC(=O)C4(C(=O)Nc5ccc(F)cc5)CC4)cc3)ccnc2cc1N [Compound 90, Methyl 7-amino-4-[4-[[1-[(4-fluorophenyl)carbamoyl]-cyclopropanecarbonyl]amino]phenoxy]quinoline-6-carboxylate]
100 to 300	100 to 300	10 to 100	CC1NC(=O)c2cc3c(Oc4ccc(NC(=O)C5(C(=O)Nc6ccc(F)cc6)CC5)cc4)ccnc3cc2O1 (stereo not drawn) [Compound 92, 1-N′-(4-Fluorophenyl)-1-N-[4-[(2-methyl-4-oxo-2,3-dihydropyrido[3,2-g][1,3]benzoxazin-6-yl)oxy]phenyl]cyclopropane-1,1-dicarboxamide]
100 to 300	> 300	100 to 300	CNC(=O)c1cc2c(Oc3ccc(NC(=O)C4(C(=O)Nc5ccc(F)cc5)CC4)cc3)ccnc2cc1N [Compound 88, 1-N-[4-[7-Amino-6-(methylcarbamoyl)quinolin-4-yl]oxyphenyl]-1-N′-(4-fluorophenyl)cyclopropane-1,1-dicarboxamide]
10 to 100	100 to 300	100 to 300	CNC(=O)Nc1ccc2c(Oc3ccc(NC(=O)C4(C(=O)Nc5ccc(F)cc5)CC4)cc3)ccnc2c1 [Compound 281, 1-N′-(4-Fluorophenyl)-1-N-[4-[7-(methylcarbamoylamino)quinolin-4-yl]oxyphenyl]cyclopropane-1,1-dicarboxamide]
100 to 300	100 to 300	100 to 300	CO/N=C(\C)c1cc2c(Oc3ccc(NC(=O)C4(C(=O)Nc5ccc(F)cc5)CC4)cc3)ccnc2cc1OC [Compound 35, 1-N′-(4-fluorophenyl)-1-N-[4-[7-methoxy-6-[(E)-N-methoxy-C-methylcarbonimidoyl]quinolin-4-yl]oxyphenyl]cyclopropane-1,1-dicarboxamide]
10 to 100	≤ 10	≤ 10	COc1cc2nccc(Oc3ccc(NC(=O)C4(C(=O)Nc5ccc(F)cc5)CC4)cc3)c2cc1-c1cn(C)cn1 [Compound 177, 1-N′-(4-Fluorophenyl)-1-N-[4-[7-methoxy-6-(1-methylimidazol-4-yl)quinolin-4-yl]oxyphenyl]cyclopropane-1,1-dicarboxamide]
100 to 300	100 to 300	10 to 100	O=C(Nc1ccc(F)cc1)C1(C(=O)Nc2ccc(Oc3ccnc4ccc(-c5nnco5)cc34)cc2)CC1 [Compound 221, 1-N′-(4-Fluorophenyl)-1-N-[4-[6-(1,3,4-oxadiazol-2-yl)quinolin-4-yl]oxyphenyl]cyclopropane-1,1-dicarboxamide]
100 to 300	> 300	> 300	CC(=O)c1ccc2c(Oc3ccc(NC(=O)C4(C(=O)Nc5ccc(F)cc5)CC4)cc3)ccnc2c1 [Compound 255, 1-N-[4-(7-Acetylquinolin-4-yl)oxyphenyl]-1-N′-(4-fluorophenyl)cyclopropane-1,1-dicarboxamide]
100 to 300	100 to 300	100 to 300	O=C(NOC1COC1)c1ccc2c(Oc3ccc(NC(=O)C4(C(=O)Nc5ccc(F)cc5)CC4)cc3)ccnc2c1 [Compound 167, 1-N′-(4-Fluorophenyl)-1-N-[4-[7-(oxetan-3-yloxycarbamoyl)quinolin-4-yl]oxyphenyl]cyclopropane-1,1-dicarboxamide]
100 to 300	> 300	100 to 300	CO/N=C(/C)c1cc2c(Oc3ccc(NC(=O)C4(C(=O)Nc5ccc(F)cc5)CC4)cc3)ccnc2cc1OC [Compound 36, 1-N′-(4-fluorophenyl)-1-N-[4-[7-methoxy-6-[(Z)-N-methoxy-C-methylcarbonimidoyl]quinolin-4-yl]oxyphenyl]cyclopropane-1,1-dicarboxamide]
100 to 300	100 to 300	100 to 300	CO/N=C(\C)c1ccc2c(Oc3ccc(NC(=O)C4(C(=O)Nc5ccc(F)cc5)CC4)cc3)ccnc2c1 [Compound 256, 1-N′-(4-Fluorophenyl)-1-N-[4-[7-[(E)-N-methoxy-C-methylcarbonimidoyl]quinolin-4-yl]oxyphenyl]cyclopropane-1,1-dicarboxamide]
10 to 100	100 to 300	10 to 100	O=C(NOCCO)c1ccc2c(Oc3ccc(NC(=O)C4(C(=O)Nc5ccc(F)cc5)CC4)cc3)ccnc2c1 [Compound 166, 1-N′-(4-Fluorophenyl)-1-N-[4-[7-(2-hydroxyethoxycarbamoyl)-quinolin-4-yl]oxyphenyl]cyclopropane-1,1-dicarboxamide]
